Experimental data as given in US11572362B2, “Pyrrolo[1,2-b]pyridazine derivatives” (Gilead Sciences, Inc., priority 2018, dated 2023).

Key:
TNFα = test: IRAK4 Monocyte TNFα Cell Based Assay; settings: cryopreserved human monocytes, 50 pg/ml LPS, compound 1 hour pre-treatment, 4 hours stimulation, TNFα by TR-FRET
In short: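 Monocytes at 5,000 cells/well were pre-treated with compound for 1 h at 37 °C (0.1% DMSO final), then stimulated with 50 pg/ml LPS for 4 h. Secreted TNFα in supernatant was measured by TR-FRET (665/615 ratio), expressed as % control relative to unstimulated and stimulated cells.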

IRAK4 = IRAK4 (Homo sapiens (Human), UniProt Q9NWZ3); test: IRAK4 Biochemical Assay (TR-FRET/HTRF); settings: IRAK4 enzyme 0.75 nM, 500 μM ATP, 2 μM STK1 peptide, 120 min
IRAK4, sequence (Q9NWZ3 whole entry): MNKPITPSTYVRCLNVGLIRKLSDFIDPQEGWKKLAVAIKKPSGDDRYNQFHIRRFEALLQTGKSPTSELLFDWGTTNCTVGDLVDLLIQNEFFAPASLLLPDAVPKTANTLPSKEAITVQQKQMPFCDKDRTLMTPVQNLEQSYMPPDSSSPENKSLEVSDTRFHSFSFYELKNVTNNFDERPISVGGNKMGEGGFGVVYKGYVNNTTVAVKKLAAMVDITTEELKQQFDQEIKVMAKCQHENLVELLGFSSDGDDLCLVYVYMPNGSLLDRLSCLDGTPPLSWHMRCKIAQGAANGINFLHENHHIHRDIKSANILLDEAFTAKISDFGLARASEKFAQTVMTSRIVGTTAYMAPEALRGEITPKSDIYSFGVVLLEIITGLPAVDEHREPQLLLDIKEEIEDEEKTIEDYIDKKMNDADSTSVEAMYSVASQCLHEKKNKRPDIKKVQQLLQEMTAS
In short: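 Recombinant IRAK4 (0.75 nM) with 2 µM STK1 peptide and 500 µM ATP in pH 7.0 HEPES/Mg buffer; compound preincubated 15 min with enzyme and peptide, then 120 min reaction at room temperature. HTRF readout: cryptate anti-phospho-peptide antibody, 665/615 nm ratio; % inhibition against no-inhibitor and saturating-staurosporine controls.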

SMILES | EC50 (TNFα; Monocyte) [nM] | IC50 (IRAK4) [nM] | EC50 (TNFα) [nM]
CC(C)(O)[C@H](F)CNC(=O)c1cnc(-c2ccc3cc(C#N)cnn23)cc1N[C@H]1CC[C@H](n2cc(C3COC3)nn2)CC1 [Compound 33, 6-(3-cyanopyrrolo[1,2-b]pyridazin-7-yl)-N-((R)-2-fluoro-3-hydroxy-3-methylbutyl)-4-(((1r,4R)-4-(4-(oxetan-3-yl)-1H-1,2,3-triazol-1-yl)cyclohexyl)amino)nicotinamide] | 200 | 1 | –
CC(C)(O)[C@H](F)CNC(=O)c1cnc(-c2ccc3cc(C#N)cnn23)cc1N[C@H]1CC[C@H](c2cnn(CC(F)F)c2)CC1 [Compound 5, 6-(3-cyanopyrrolo[1,2-b]pyridazin-7-yl)-4-(((1r,4R)-4-(1-(2,2-difluoroethyl)-1H-pyrazol-4-yl)cyclohexyl)amino)-N-((R)-2-fluoro-3-hydroxy-3-methylbutyl)nicotinamide] | 22 | < 1 | –
CC(C)(O)[C@H](F)CNC(=O)c1cnc(-c2ccc3cc(C#N)cnn23)cc1NC12CCC(N3CCC(F)(F)CC3)(CC1)CC2 [Compound 68, (R)-6-(3-cyanopyrrolo[1,2-b]pyridazin-7-yl)-4-((4-(4,4-difluoropiperidin-1-yl)bicyclo[2.2.2]octan-1-yl)amino)-N-(2-fluoro-3-hydroxy-3-methylbutyl)nicotinamide] | 38 | < 1 | –
CC(C)(O)[C@H](F)CNC(=O)c1cnc(-c2ccc3cc(C#N)cnn23)cc1N[C@H]1CC[C@H](c2cn[nH]c2)CC1 [Compound 1, 4-(((1r,4R)-4-(1H-pyrazol-4-yl)cyclohexyl)amino)-6-(3-cyanopyrrolo[1,2-b]pyridazin-7-yl)-N-((R)-2-fluoro-3-hydroxy-3-methylbutyl)nicotinamide] | 4 | < 1 | –
CC(C)(O)[C@H](F)CNC(=O)c1cnc(-c2ccc3cc(C#N)cnn23)cc1N[C@H]1CC[C@H](c2nnc(C(F)F)o2)OC1 [Compound 74, 6-(3-cyanopyrrolo[1,2-b]pyridazin-7-yl)-4-(((3S,6R)-6-(5-(difluoromethyl)-1,3,4-oxadiazol-2-yl)tetrahydro-2H-pyran-3-yl)amino)-N-((R)-2-fluoro-3-hydroxy-3-methylbutyl)nicotinamide] | 71.4 | 0.868 | –
CC(C)(O)[C@H](F)CNC(=O)c1cnc(-c2ccc3cc(C#N)cnn23)cc1N[C@H]1CC[C@H](c2cn(C(F)F)cn2)CC1 [Compound 17, 6-(3-cyanopyrrolo[1,2-b]pyridazin-7-yl)-4-(((1r,4R)-4-(1-(difluoromethyl)-1H-imidazol-4-yl)cyclohexyl)amino)-N-((R)-2-fluoro-3-hydroxy-3-methylbutyl)nicotinamide] | 33 | 1 | –
CC(C)(O)[C@H](F)CNC(=O)c1cnc(-c2ccc3cc(C#N)cnn23)cc1N[C@H]1CC[C@H](c2cccnc2)CC1 [Compound 55, 6-(3-cyanopyrrolo[1,2-b]pyridazin-7-yl)-N-((R)-2-fluoro-3-hydroxy-3-methylbutyl)-4-(((1r,4R)-4-(pyridin-3-yl)cyclohexyl)amino)nicotinamide] | 25 | < 1 | –
CC(C)(O)[C@H](F)CNC(=O)c1cnc(-c2ccc3cc(C#N)cnn23)cc1N[C@H]1CC[C@H](n2ccnn2)CC1 [Compound 31, 4-(((1r,4R)-4-(1H-1,2,3-triazol-1-yl)cyclohexyl)amino)-6-(3-cyanopyrrolo[1,2-b]pyridazin-7-yl)-N-((R)-2-fluoro-3-hydroxy-3-methylbutyl)nicotinamide] | 40 | 1 | –
CC(C)(O)[C@H](F)CNC(=O)c1cnc(-c2ccc3cc(C#N)cnn23)cc1N[C@H]1CC[C@H](c2ccn(C(F)F)n2)CC1 [Compound 8, 6-(3-cyanopyrrolo[1,2-b]pyridazin-7-yl)-4-(((1r,4R)-4-(1-(difluoromethyl)-1H-pyrazol-3-yl)cyclohexyl)amino)-N-((R)-2-fluoro-3-hydroxy-3-methylbutyl)nicotinamide] | 36 | 1 | –
CC(C)(O)[C@H](F)CNC(=O)c1cnc(-c2ccc3cc(C#N)cnn23)cc1N[C@H]1CC[C@H](c2nnc(C3CC3)o2)CC1 [Compound 41, 6-(3-cyanopyrrolo[1,2-b]pyridazin-7-yl)-4-(((1r,4R)-4-(5-cyclopropyl-1,3,4-oxadiazol-2-yl)cyclohexyl)amino)-N-((R)-2-fluoro-3-hydroxy-3-methylbutyl)nicotinamide] | 38 | < 1 | –
CC(C)(O)[C@H](F)CNC(=O)c1cnc(-c2ccc3cc(C#N)cnn23)cc1N[C@H]1CC[C@H](c2nnn(C(F)F)n2)CC1 [Compound 72, 6-(3-cyanopyrrolo[1,2-b]pyridazin-7-yl)-4-(((1r,4R)-4-(2-(difluoromethyl)-2H-tetrazol-5-yl)cyclohexyl)amino)-N-((R)-2-fluoro-3-hydroxy-3-methylbutyl)nicotinamide] | – | 0.639 | 31.3
CC(C)(O)[C@H](F)CNC(=O)c1cnc(-c2ccc3cc(C#N)cnn23)cc1NC12CCC(c3cnco3)(CC1)CC2 [Compound 66, (R)-6-(3-cyanopyrrolo[1,2-b]pyridazin-7-yl)-N-(2-fluoro-3-hydroxy-3-methylbutyl)-4-((4-(oxazol-5-yl)bicyclo[2.2.2]octan-1-yl)amino)nicotinamide] | 8 | < 1 | –
Cc1ncc([C@H]2CC[C@H](Nc3cc(-c4ccc5cc(C#N)cnn45)ncc3C(=O)NC[C@@H](F)C(C)(C)O)CC2)s1 [Compound 50, 6-(3-cyanopyrrolo[1,2-b]pyridazin-7-yl)-N-((R)-2-fluoro-3-hydroxy-3-methylbutyl)-4-(((1r,4R)-4-(2-methylthiazol-5-yl)cyclohexyl)amino)nicotinamide] | 52 | 1 | –
Cn1cc([C@H]2CC[C@H](Nc3cc(-c4ccc5cc(C#N)cnn45)ncc3C(=O)NC[C@@H](F)C(C)(C)O)CC2)nn1 [Compound 19, 6-(3-cyanopyrrolo[1,2-b]pyridazin-7-yl)-N-((R)-2-fluoro-3-hydroxy-3-methylbutyl)-4-(((1r,4R)-4-(1-methyl-1H-1,2,3-triazol-4-yl)cyclohexyl)amino)nicotinamide] | 26 | < 1 | –
CC(C)(O)[C@H](F)CNC(=O)c1cnc(-c2ccc3cc(C#N)cnn23)cc1NC12CCC(c3nnc(C(F)F)o3)(CC1)CC2 [Compound 62, (R)-6-(3-cyanopyrrolo[1,2-b]pyridazin-7-yl)-4-((4-(5-(difluoromethyl)-1,3,4-oxadiazol-2-yl)bicyclo[2.2.2]octan-1-yl)amino)-N-(2-fluoro-3-hydroxy-3-methylbutyl)nicotinamide] | 19 | < 1 | –
Cc1c(C2CCC(Nc3cc(-c4ccc5cc(C#N)cnn45)ncc3C(=O)NC[C@@H](F)C(C)(C)O)CC2)cnn1C(F)F (stereo partly drawn) [Compound 10, (R)-6-(3-cyanopyrrolo[1,2-b]pyridazin-7-yl)-4-((4-(1-(difluoromethyl)-5-methyl-1H-pyrazol-4-yl)cyclohexyl)amino)-N-(2-fluoro-3-hydroxy-3-methylbutyl)nicotinamide] | 55 | 8 | –
CC(C)(O)[C@H](F)CNC(=O)c1cnc(-c2ccc3cc(C#N)cnn23)cc1N[C@H]1CC[C@H](n2cc(C(F)F)nn2)CC1 [Compound 35, 6-(3-cyanopyrrolo[1,2-b]pyridazin-7-yl)-4-(((1r,4R)-4-(4-(difluoromethyl)-1H-1,2,3-triazol-1-yl)cyclohexyl)amino)-N-((R)-2-fluoro-3-hydroxy-3-methylbutyl)nicotinamide] | 16 | < 1 | –
CC(C)(O)[C@H](F)CNC(=O)c1cnc(-c2ccc3cc(C#N)cnn23)cc1NC1CCC(c2cnc(C(F)F)s2)CC1 (stereo partly drawn) [Compound 51, (R)-6-(3-cyanopyrrolo[1,2-b]pyridazin-7-yl)-4-((4-(2-(difluoromethyl)thiazol-5-yl)cyclohexyl)amino)-N-(2-fluoro-3-hydroxy-3-methylbutyl)nicotinamide] | 76 | 3 | –
CC(C)(O)[C@H](F)CNC(=O)c1cnc(-c2ccc3cc(C#N)cnn23)cc1N[C@H]1CC[C@H](n2cc(C3CC3)nn2)CC1 [Compound 32, 6-(3-cyanopyrrolo[1,2-b]pyridazin-7-yl)-4-(((1r,4R)-4-(4-cyclopropyl-1H-1,2,3-triazol-1-yl)cyclohexyl)amino)-N-((R)-2-fluoro-3-hydroxy-3-methylbutyl)nicotinamide] | 63 | 1 | –
CC(C)(O)[C@H](F)CNC(=O)c1cnc(-c2ccc3cc(C#N)cnn23)cc1NC1CCC(c2ccncc2)CC1 (single isomer, unassigned) [Compound 56] | 221 | 9 | –
CC(C)(O)[C@H](F)CNC(=O)c1cnc(-c2ccc3cc(C#N)cnn23)cc1N[C@H]1CC[C@H](c2ncn(C(F)F)n2)CC1 [Compound 22, 6-(3-cyanopyrrolo[1,2-b]pyridazin-7-yl)-4-(((1r,4R)-4-(1-(difluoromethyl)-1H-1,2,4-triazol-3-yl)cyclohexyl)amino)-N-((R)-2-fluoro-3-hydroxy-3-methylbutyl)nicotinamide] | 67 | 2 | –
CC(C)(O)[C@H](F)CNC(=O)c1cnc(-c2ccc3cc(C#N)cnn23)cc1N[C@H]1CC[C@H](n2nc(C(F)F)cc2C(F)F)CC1 [Compound 29, 4-(((1r,4R)-4-(3,5-bis(difluoromethyl)-1H-pyrazol-1-yl)cyclohexyl)amino)-6-(3-cyanopyrrolo[1,2-b]pyridazin-7-yl)-N-((R)-2-fluoro-3-hydroxy-3-methylbutyl)nicotinamide] | 381 | 7 | –
